Laboratory results: US7214669B2, “Tetracycline derivatives and methods of use thereof” (Tetragenex Pharmaceuticals, Inc., priority 2001, dated 2007)
Several values for one entry are separate records, joined by “and”; a condition that tells them apart may be missing. Identical values can stand only once.

Assays:
Human recombinant MMP9 = Human recombinant MMP9 (Homo sapiens, UniProt P14780); test: MMP9 (Gelatinase B) inhibition, 14C gelatin release; assay type: biochemical; conditions: 37° C., 16 hours; read-out: MMP-9 inhibitory activity, IC50
Human recombinant MMP3 = Human recombinant MMP3 (Homo sapiens, UniProt P08254); test: MMP3 (Stromelysin 1) inhibition, 14C casein release; assay type: biochemical; conditions: 37° C., 16 hours; read-out: MMP-3 inhibitory activity, IC50
Human recombinant MMP1 = target: T1, Human recombinant MMP1 (Homo sapiens, UniProt P03956); test: MMP1 (Collagenase-1) inhibition, 14C collagen release; assay type: biochemical; conditions: 35° C., 5 hours; read-out: MMP-1 inhibitory activity, IC50
T1 sequence (P03956 100-469): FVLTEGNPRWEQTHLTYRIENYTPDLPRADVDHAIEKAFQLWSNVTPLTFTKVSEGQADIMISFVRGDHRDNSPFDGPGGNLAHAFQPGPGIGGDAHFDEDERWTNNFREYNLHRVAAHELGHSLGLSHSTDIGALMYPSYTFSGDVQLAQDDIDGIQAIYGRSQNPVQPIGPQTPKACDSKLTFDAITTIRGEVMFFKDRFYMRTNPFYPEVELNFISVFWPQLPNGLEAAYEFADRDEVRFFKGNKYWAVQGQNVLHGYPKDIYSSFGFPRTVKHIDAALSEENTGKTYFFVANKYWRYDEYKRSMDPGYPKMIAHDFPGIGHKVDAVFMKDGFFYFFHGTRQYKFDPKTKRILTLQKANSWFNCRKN

Human recombinant MMP14 = Human recombinant MMP14 (Homo sapiens, UniProt P50281); test: MMP14 (MTI-MMP) inhibition, 14C collagen release; assay type: biochemical; conditions: 35° C., 15 hours; read-out: MMP-14 inhibitory activity, IC50
MMP2 (Gelatinase A) = target: T2, MMP2 (Gelatinase A) (Homo sapiens, UniProt P08253); test: MMP2 (Gelatinase A) inhibition, 14C gelatin release; assay type: biochemical; conditions: 37° C., 16 hours; read-out: MMP-2 inhibitory activity, IC50
T2 sequence (P08253 110-660): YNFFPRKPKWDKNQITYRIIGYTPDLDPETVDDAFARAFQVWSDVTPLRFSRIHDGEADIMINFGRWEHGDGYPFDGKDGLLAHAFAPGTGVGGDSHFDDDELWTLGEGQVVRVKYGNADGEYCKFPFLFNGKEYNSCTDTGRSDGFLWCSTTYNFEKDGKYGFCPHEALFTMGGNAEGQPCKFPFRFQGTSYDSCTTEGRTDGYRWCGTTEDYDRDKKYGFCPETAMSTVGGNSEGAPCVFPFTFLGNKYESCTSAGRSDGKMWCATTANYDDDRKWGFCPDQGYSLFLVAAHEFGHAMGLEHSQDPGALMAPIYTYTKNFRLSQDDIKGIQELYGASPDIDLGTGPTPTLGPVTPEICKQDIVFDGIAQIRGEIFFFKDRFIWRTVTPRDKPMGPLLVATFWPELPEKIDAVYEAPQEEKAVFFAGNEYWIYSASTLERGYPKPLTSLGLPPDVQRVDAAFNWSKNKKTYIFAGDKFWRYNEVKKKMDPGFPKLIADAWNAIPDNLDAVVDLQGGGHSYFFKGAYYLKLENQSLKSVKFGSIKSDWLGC

[1] = system: PC-3 ML human prostate cancer cells; test: Membrane Invasion Culture System (MICS) chemo-invasion assay; assay type: cell-based; conditions: 24 hours, + = increased invasiveness
Text: (§1) Another objective was to analyze the effects of specific, tetracycline derived compounds on the in-vitro chemo-invasive potential of: • C8161 human melanoma cells • MDA-MB-231 human breast cancer cells • PC3 human prostate cancer cells • RPM18226 human myeloma cancer cells • Ark human myeloma cancer cells • Arp-1 human myeloma cancer cells
(§2) The Membrane Invasion Culture System (MICS) in vitro chemo-invasion assay was chosen to measure changes in the invasive potential of specific human cancer cells in response to tetracycline derived compounds. Stock solutions of each compound were hydrated in water containing 2% DMSO and pH 10.0. Upon solubilization, HCl was added to the solution to establish a pH of 7.5–8.0. This solution was then wrapped in foil and kept at 4° C. during the 24 hours of assay. Fresh compound was prepared for each assay. The in vitro chemoinvasion analyses for tumor cell invasiveness are performed using the Membrane Invasion Culture System (MICS) as previously described.
(§3) The MICS system is a thermally treated plastic manifold system consisting of two matched sets of plates containing fourteen wells, 13 mm in diameter. Interposed between these plates was a polycarbonate filter containing 10 μm pores and coated with a defined matrix composed of human laminin/collagen IV/gelatin that formed a 35 μm thick barrier between the top and bottom sections of the wells in MICS. Prior to placing this barrier in place, the lower wells were filled with serum-free RPMI culture medium made 50% in conditioned medium obtained from 2-day-old cultures of human fibroblasts which had been cleared of cells and cellular debris by either centrifugation, or filtering through a 0.45 μm sterile filter. The barrier was then placed on the lower wells and fresh serum-free medium added to the upper wells after assembly of the system. Fifty thousand tumor cells were then added to the wells either in the presence of the compound, or the DMSO vehicle (the controls). Of the 12 assay wells on each manifold, 3 randomized wells acted as controls, 3 wells received 1 μg/ml of compound, 3 received 10 μg/ml and 3 received 25 μg/ml. After 24 hours, cells and media were removed from the lower wells and replaced by phosphate buffered saline plus 2 mM EDTA. This solution was used to remove all cells from the lower well, and this wash was added to the recovered cells plus medium from the same well. These samples were then collected onto a polylysine containing polycarbonate membrane containing 3 μm pores using a Dot-Blot manifold system. These collection filters were then fixed in methanol, and stained using Wright's stain (Leukostat staining kit) in situ. The filters were then mounted on microscope slides with microscope immersion oil (which reduced the light refraction from the pores) and 5 microscopic fields were counted to calculate the number of cells which invaded through the membrane over the 24 hour period. These numbers were then statistically analyzed as discussed below.

[2] = system: C8161 human melanoma cells; test: as above; assay type: cell-based; conditions: 25 ug/mL; 24 hours; + = increased invasiveness
Text: as §1, §2, §3

[3] = system: MDA-MB-231 human breast cancer cells; test: as above; assay type: cell-based; conditions: 25 ug/mL; 24 hours; + = increased invasiveness
Text: as §1, §2, §3

Chain of Human recombinant MMP9 (P14780 94-707): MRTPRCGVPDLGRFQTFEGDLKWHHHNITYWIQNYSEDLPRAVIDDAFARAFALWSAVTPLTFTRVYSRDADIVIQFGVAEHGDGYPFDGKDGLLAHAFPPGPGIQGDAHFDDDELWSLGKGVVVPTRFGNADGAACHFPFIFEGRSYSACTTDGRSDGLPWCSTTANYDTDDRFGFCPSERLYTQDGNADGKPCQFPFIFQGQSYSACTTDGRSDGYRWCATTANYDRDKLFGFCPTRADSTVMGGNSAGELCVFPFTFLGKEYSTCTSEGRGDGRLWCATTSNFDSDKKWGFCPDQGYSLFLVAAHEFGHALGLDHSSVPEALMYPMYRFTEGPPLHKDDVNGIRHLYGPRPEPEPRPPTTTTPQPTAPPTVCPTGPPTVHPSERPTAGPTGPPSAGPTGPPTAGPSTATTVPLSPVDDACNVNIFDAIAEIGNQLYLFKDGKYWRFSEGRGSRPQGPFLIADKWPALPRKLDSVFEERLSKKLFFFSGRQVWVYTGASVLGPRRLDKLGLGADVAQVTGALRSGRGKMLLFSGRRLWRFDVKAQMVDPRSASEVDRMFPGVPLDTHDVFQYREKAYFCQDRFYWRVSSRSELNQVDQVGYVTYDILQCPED
Chain of Human recombinant MMP3 (P08254 100-477): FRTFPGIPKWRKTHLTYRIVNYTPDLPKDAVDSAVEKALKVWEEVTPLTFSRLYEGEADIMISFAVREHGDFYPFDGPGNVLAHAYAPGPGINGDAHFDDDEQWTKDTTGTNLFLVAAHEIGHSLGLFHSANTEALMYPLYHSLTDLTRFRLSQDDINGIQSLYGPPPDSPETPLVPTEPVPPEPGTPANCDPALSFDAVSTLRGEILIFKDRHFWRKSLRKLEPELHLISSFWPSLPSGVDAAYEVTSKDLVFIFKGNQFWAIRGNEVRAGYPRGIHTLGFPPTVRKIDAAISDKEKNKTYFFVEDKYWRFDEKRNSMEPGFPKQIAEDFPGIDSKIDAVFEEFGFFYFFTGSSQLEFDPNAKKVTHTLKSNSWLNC

Row | IC50 (Human recombinant MMP9) | IC50 (Human recombinant MMP3) | IC50 (Human recombinant MMP1) | IC50 (Human recombinant MMP14) | IC50 (MMP2 (Gelatinase A)) | Compound | percent inhibition, PC-3 ML (Prostrate) ([1]; 1 ug/mL) | percent inhibition, PC-3 ML (Prostrate) ([1]; 10 ug/mL) | percent inhibition, PC-3 ML (Prostrate) ([1]; 25 ug/mL) | percent inhibition, C8161 (Melanoma) [2] | percent inhibition, MDA-MB-231 (Breast) [3]
1 | 214 µM | 244 µM | 601 µM | 197 µM | 236 µM | CC1c2c(NC3CCC3)ccc(O)c2C(=O)C2=C(O)C3(O)C(=O)C(C(N)=O)=C(O)C(N(C)C)C3C(O)C21 (stereo not shown) [Compound 32, 7-Cyclobutylamino-6-deoxy-5-hydroxytetracycline H2SO4] |  |  |  |  | 
2 | 142 µM | 205 µM | 295 µM | 94 µM | 263 µM | 7-Cyclobutylmethylamino-6-deoxy-5-hydroxytetracycline H2SO4 [Compound 33] |  |  |  |  | 
3 | 384 µM | > 1000 µM | > 1000 µM | 586 µM | 413 µM | CC(=O)Nc1cc(N)c(O)c2c1C(C)C1C(=C(O)C3(O)C(=O)C(C(N)=O)=C(O)C(N(C)C)C3C1O)C2=O (stereo not shown) [Compound 26, 7-Acetamido-9-amino-6-deoxy-5-hydroxytetracycline H2SO4] |  |  |  |  | 
4 | 311 µM | > 1000 µM | 621 µM | 593 µM | 258 µM | C[C@H]1c2c(N(C)C)cc([N+]#N)c(O)c2C(=O)C2=C(O)[C@]3(O)C(=O)C(C(N)=O)=C(O)[C@@H](N(C)C)[C@@H]3[C@@H](O)[C@@H]21 [Compound 31, 7-Dimethylamino-6-deoxy-5-hydroxytetracycline-9-diazonium H2SO4] |  |  |  |  | 
5 | 424 µM | 506 µM | 12800 µM | 354 µM | 1930 µM | C[C@H]1c2c(N)ccc(O)c2C(=O)C2=C(O)[C@]3(O)C(=O)C(C(N)=O)=C(O)C[C@@H]3[C@@H](O)[C@@H]21 [Compound 48, 4-Dedimethylamino-7-amino-6-deoxy-5-hydroxyltetracycline H2SO4] |  |  |  |  | 
6 | 131 µM | 335 µM | 123 µM | 102 µM | 233 µM | CCCCCCN(CCCCCC)c1ccc(O)c2c1C(C)C1C(=C(O)C3(O)C(=O)C(C(N)=O)=C(O)C(N(C)C)C3C1O)C2=O (stereo not shown) [Compound 18, 7-Di-n-Hexylamino-6-deoxy-5-hydroxytetracycline H2SO4] |  |  |  |  | 
7 | 162 µM | 281 µM | 429 µM | 266 µM | 511 µM | CC1c2c(N=[N+]=[N-])ccc(O)c2C(=O)C2=C(O)C3(O)C(=O)C(C(N)=O)=C(O)C(N(C)C)C3C(O)C21 (stereo not shown) [Compound 20, 7-Azido-6-deoxy-5-hydroxy-tetracycline H2SO4] |  |  |  |  | 
8 | 308 µM | 136 µM | 242 µM | 197 µM | 242 µM | CC1c2cccc(O)c2C(=O)C2=C(O)C3(O)C(=O)C(C(N)=O)=C(O)CC3C(O)C21 (stereo not shown) [Compound 34, 4-Dedimethylamino-6-deoxy-5-hydroxytetracycline] |  |  |  |  | 
9 | > 1000 µM | 938 µM | 576 µM | > 1000 µM | > 1000 µM | CC(=O)Nc1cc([N+]#N)c(O)c2c1C(C)C1C(=C(O)C3(O)C(=O)C(C(N)=O)=C(O)C(N(C)C)C3C1O)C2=O (stereo not shown) [Compound 30, 7-Acetamido-6-deoxy-5-hydroxytetracycline-9-diazonium H2SO4] |  |  |  |  | 
10 | 98 µM | 394 µM | 270 µM | 90 µM | 925 µM | CC1c2c(N(CCC(C)(C)C)CCC(C)(C)C)ccc(O)c2C(=O)C2=C(O)C3(O)C(=O)C(C(N)=O)=C(O)C(N(C)C)C3C(O)C21 (stereo not shown) [Compound 19, 7-Di-(3,3-dimethylbutyl)amino-6-deoxy-5-hydroxytetracycline H2SO4] |  |  |  |  | 
11 | 148 µM | 303 µM | 974 µM | 185 µM | 397 µM | CC(C)CNc1ccc(O)c2c1C(C)C1C(=C(O)C3(O)C(=O)C(C(N)=O)=C(O)C(N(C)C)C3C1O)C2=O (stereo not shown) [Compound 25, 7-Isobutylamino-6-deoxy-5-hydroxytetracycline H2SO4] |  |  |  |  | 
12 | 215 µM | 95 µM | 230 µM | 69 µM | 175 µM | CC1c2c([N+](=O)[O-])cc(C(C)(C)C)c(O)c2C(=O)C2=C(O)C3(O)C(=O)C(C(N)=O)=C(O)C(N(C)C)C3C(O)C21 (stereo not shown) [Compound 38, 7-nitro-9-tertbutyl-6-deoxy-5-hydroxytetracycline H2SO4] | 37^B percent and 38^B percent | 41^B percent and 27^B percent | 41% and 52% | 66^B percent and 39% | 70^B percent and 37%
13 | 341 µM | 462 µM | 396 µM | 459 µM | 254 µM | CC(=O)Nc1cc([N+](=O)[O-])c(O)c2c1C(C)C1C(=C(O)C3(O)C(=O)C(C(N)=O)=C(O)C(N(C)C)C3C1O)C2=O (stereo not shown) [Compound 22, 7-Acetamido-9-nitro-6-deoxy-5-hydroxytetracycline H2SO4] |  |  |  |  | 
14 | 110 µM | 350 µM | 122 µM | 98 µM | > 1000 µM | CCCCN(CCCC)c1ccc(O)c2c1C(C)C1C(=C(O)C3(O)C(=O)C(C(N)=O)=C(O)C(N(C)C)C3C1O)C2=O (stereo not shown) [Compound 17, 7-Di-n-Butylamino-6-deoxy-5-hydroxytetracycline H2SO4] |  |  |  |  | 
15 | 397 µM | 218 µM | 947 µM | 108 µM | 249 µM | CC1c2ccc([N+](=O)[O-])c(O)c2C(=O)C2=C(O)C3(O)C(=O)C(C(N)=O)=C(O)CC3C(O)C21 (stereo not shown) [Compound 35, 4-Dedimethylamino-6-deoxy-5-hydroxy-9-nitrotetracycline] |  |  |  |  | 
16 | 79 µM | > 1000 µM | 293 µM | 115 µM | > 1000 µM | CC1c2c([N+]#N)ccc(O)c2C(=O)C2=C(O)C3(O)C(=O)C(C(N)=O)=C(O)C(N(C)C)C3C(O)C21 (stereo not shown) [Compound 21, 6-Deoxy-5-hydroxytetracycline-7-diazonium H2SO4] |  |  |  |  | 
